Test results taken from paper PMC9596378, “Discovery and molecular basis of subtype-selective cyclophilin inhibitors” (Nature Chemical Biology, 2022).
pIC50: −log10 of the molar value. “And” between values parts separate entries of the source, which are not always exact repeats. Equal entries are not always repeated.

Key:
[1] = target: T1, PPWD1 (Homo sapiens, UniProt Q96BP3); experiment: Chymotrypsin coupled prolyl-isomerase assay; type: biochemical; conditions: for prolyl-isomerase activity (raw dose-response value): in s^-1; for pIC50: wild-type PPWD1, read-out: Wild-Type Cyclophilin Prolyl Isomerase Inhibition IC50 Values, PPWD1
T1 construct: PPWD1 (UniProtKB Entry Q96BP3: residues 473–646); host or cells: E. coli BL21(DE3)
T1 sequence (Q96BP3 473-646): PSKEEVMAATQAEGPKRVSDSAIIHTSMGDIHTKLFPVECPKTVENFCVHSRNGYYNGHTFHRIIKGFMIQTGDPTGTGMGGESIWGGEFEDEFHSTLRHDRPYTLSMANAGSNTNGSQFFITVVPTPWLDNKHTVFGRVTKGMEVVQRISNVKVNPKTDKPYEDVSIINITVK
Description: Five microliters of compound pre-dissolved in 5% DMSO/assay buffer was then added to appropriate wells and incubated at 2–3 °C for 5 min. Five microliters of 0.5 mM α-chymotrypsin from bovine pancreas (Type II, lyophilized powder, Millipore-Sigma) in 20% 1 mM HCl/Assay Buffer was then added to each well and incubated at 2–3 °C for 5 min. The plate was then quickly transferred to a FLIPR Tetra High-Throughput Cellular Screening System (Molecular Devices). Using the internal liquid handling system of the FLIPR, 1 µL 0.5 mM Suc-AAPF-AMC (Chymotrypsin Substrate II, Millipore-Sigma) dissolved in 0.55 M LiCl/2,2,2-trifluoroethanol was added to each well, which was then mixed for 5 s, followed by immediate fluorescence measurements every 1 s for 330 s using a 360–380 nm excitation LED module and a 400–460 nm emission filter. […] Raw fluorescence data was analyzed by non-linear regression analysis with Prism v.9 by fitting one-phase association curves to each well. Analyses were halted after the calculated maximum fluorescent value owing to observed fluorescent bleaching during the sustained fluorescent plateau. Rate constants calculated for each well (s^−1) were then normalized to substrate only (no prolyl-isomerase) and enzyme + substrate only controls.

[2] = target: T2, CypB (Homo sapiens, UniProt P23284); experiment: biochemical; conditions: for prolyl-isomerase activity (raw dose-response value): CypB; for pIC50: wild-type CypB, read-out: Wild-Type Cyclophilin Prolyl Isomerase Inhibition IC50 Values, CypB
T2 construct: PPIB (UniProtKB Entry P23284: residues 34–216); His6 with TEV site (2BT vector leader) (N); made in house; host or cells: E. coli BL21(DE3)
T2 sequence (P23284 34-216): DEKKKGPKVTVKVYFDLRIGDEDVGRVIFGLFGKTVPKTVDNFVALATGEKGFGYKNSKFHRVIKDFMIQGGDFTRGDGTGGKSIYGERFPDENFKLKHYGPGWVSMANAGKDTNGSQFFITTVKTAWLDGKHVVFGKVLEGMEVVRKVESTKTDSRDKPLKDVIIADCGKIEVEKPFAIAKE
Description: Adapting a previously described protocol, with an Agilent Bravo Velocity 11 with a 384ST head, 90 µL assay buffer (25 mM HEPES pH 7.3, 100 mM NaCl, 0.01% Triton X-100) containing 5.28 nM cyclophilin was added into a flat, clear-bottom, black 384-well plate pre-chilled in a Corning CoolBox at 2–3 °C. Five microliters of compound pre-dissolved in 5% DMSO/assay buffer was then added to appropriate wells and incubated at 2–3 °C for 5 min. Five microliters of 0.5 mM α-chymotrypsin from bovine pancreas (Type II, lyophilized powder, Millipore-Sigma) in 20% 1 mM HCl/Assay Buffer was then added to each well and incubated at 2–3 °C for 5 min. The plate was then quickly transferred to a FLIPR Tetra High-Throughput Cellular Screening System (Molecular Devices). Using the internal liquid handling system of the FLIPR, 1 µL 0.5 mM Suc-AAPF-AMC (Chymotrypsin Substrate II, Millipore-Sigma) dissolved in 0.55 M LiCl/2,2,2-trifluoroethanol was added to each well, which was then mixed for 5 s, followed by immediate fluorescence measurements every 1 s for 330 s using a 360–380 nm excitation LED module and a 400–460 nm emission filter. Final concentrations of the plate include 5 nM cyclophilin, 0.25% DMSO, 25 µM α-chymotrypsin, 5 µM Suc-AAPF-AMC. Raw fluorescence data was analyzed by non-linear regression analysis with Prism v.9 by fitting one-phase association curves to each well. […] Rate constants calculated for each well (s^−1) were then normalized to substrate only (no prolyl-isomerase) and enzyme + substrate only controls. IC50 values were calculated as the value at which 50% inhibition was achieved on the non-linear regression fitted curve of each compound.

[3] = target: CypD (Homo sapiens, UniProt P30405); experiment: Chymotrypsin coupled prolyl-isomerase assay; conditions: for prolyl-isomerase activity (raw dose-response value): CypD
Sequence of CypD (P30405 45-207): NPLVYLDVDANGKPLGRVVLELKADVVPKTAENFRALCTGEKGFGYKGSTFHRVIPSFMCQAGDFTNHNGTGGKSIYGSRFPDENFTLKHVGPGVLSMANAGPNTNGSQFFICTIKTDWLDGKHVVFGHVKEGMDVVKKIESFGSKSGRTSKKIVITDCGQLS

## NCCOCCNC(=O)[C@@H]1CCNC(=O)/C=C/C(=O)N2CCC[C@](Cc3ccccc3)(C2)C(=O)N[C@@H](Cc2ccc(C(=O)c3ccccc3)cc2)C(=O)NCc2ccccc2CC(=O)N1 [Compound B1]
[1]; PPWD1, dose 0.00244141 µM
  prolyl-isomerase activity (raw dose-response value): 0.05276 and 0.05431 and 0.05271
[1]; PPWD1, dose 0.00488281 µM
  prolyl-isomerase activity (raw dose-response value): 0.05268 and 0.05435 and 0.05318
[1]; PPWD1, dose 0.00976562 µM
  prolyl-isomerase activity (raw dose-response value): 0.05613 and 0.05695 and 0.05468
[1]; PPWD1, dose 0.0195312 µM
  prolyl-isomerase activity (raw dose-response value): 0.05207 and 0.05349 and 0.04937
[1]; PPWD1, dose 0.0390625 µM
  prolyl-isomerase activity (raw dose-response value): 0.05208 and 0.05238 and 0.05082
[1]; PPWD1, dose 0.078125 µM
  prolyl-isomerase activity (raw dose-response value): 0.04871 and 0.04927 and 0.04631
[1]; PPWD1, dose 0.15625 µM
  prolyl-isomerase activity (raw dose-response value): 0.04828 and 0.0525 and 0.04634
[1]; PPWD1, dose 0.3125 µM
  prolyl-isomerase activity (raw dose-response value): 0.04787 and 0.04701 and 0.04264
[1]; PPWD1, dose 0.625 µM
  prolyl-isomerase activity (raw dose-response value): 0.04382 and 0.04097 and 0.03416
[1]; PPWD1, dose 1.25 µM
  prolyl-isomerase activity (raw dose-response value): 0.03009 and 0.02964 and 0.0254
[1]; PPWD1, dose 2.5 µM
  prolyl-isomerase activity (raw dose-response value): 0.02331 and 0.02391 and 0.0225
[1]
  pIC50: 5.85
[2]; dose 0.00114312 µM
  prolyl-isomerase activity (raw dose-response value): 0.08676 and 0.07612 and 0.1045
[2]; dose 0.00342935 µM
  prolyl-isomerase activity (raw dose-response value): 0.09293 and 0.08942 and 0.1133
[2]; dose 0.0102881 µM
  prolyl-isomerase activity (raw dose-response value): 0.05857 and 0.07024 and 0.08235
[2]; dose 0.0308642 µM
  prolyl-isomerase activity (raw dose-response value): 0.06507 and 0.05219 and 0.06265
[2]; dose 0.0925926 µM
  prolyl-isomerase activity (raw dose-response value): 0.05131 and 0.04637 and 0.04858
[2]; dose 0.277778 µM
  prolyl-isomerase activity (raw dose-response value): 0.03303 and 0.03453 and 0.03517
[2]; dose 0.833333 µM
  prolyl-isomerase activity (raw dose-response value): 0.03176 and 0.0219 and 0.02127
[2]; dose 2.5 µM
  prolyl-isomerase activity (raw dose-response value): 0.01492 and 0.01697 and 0.01392
[2]
  pIC50: 7.52
[3]
  pIC50: 7.40
[3]; dose 0.00244141 µM
  prolyl-isomerase activity (raw dose-response value): 0.1167 and 0.1009 and 0.132
[3]; dose 0.00488281 µM
  prolyl-isomerase activity (raw dose-response value): 0.1171 and 0.1006 and 0.1105
[3]; dose 0.00976562 µM
  prolyl-isomerase activity (raw dose-response value): 0.1045 and 0.1074 and 0.1165
[3]; dose 0.0195312 µM
  prolyl-isomerase activity (raw dose-response value): 0.0977 and 0.1005 and 0.09149
[3]; dose 0.0390625 µM
  prolyl-isomerase activity (raw dose-response value): 0.07882 and 0.0807 and 0.08119
[3]; dose 0.078125 µM
  prolyl-isomerase activity (raw dose-response value): 0.05821 and 0.05418 and 0.05518
[3]; dose 0.15625 µM
  prolyl-isomerase activity (raw dose-response value): 0.03845 and 0.03512 and 0.03854
[3]; dose 0.3125 µM
  prolyl-isomerase activity (raw dose-response value): 0.0261 and 0.02523 and 0.02516
[3]; dose 0.625 µM
  prolyl-isomerase activity (raw dose-response value): 0.0197 and 0.01788 and 0.01929
[3]; dose 1.25 µM
  prolyl-isomerase activity (raw dose-response value): 0.01434 and 0.01347 and 0.01416
[3]; dose 2.5 µM
  prolyl-isomerase activity (raw dose-response value): 0.009932 and 0.009111 and 0.008108

## NCCOCCNC(=O)[C@@H]1CCNC(=O)/C=C/C(=O)N2CCC[C@](Cc3ccccc3)(C2)C(=O)N[C@@H](Cc2ccc(-c3ccccc3)cc2)C(=O)NCc2ccccc2CC(=O)N1 [Compound B2]
[1]; PPWD1, dose 0.00976562 µM
  prolyl-isomerase activity (raw dose-response value): 0.06958 and 0.06894 and 0.06376
[1]; PPWD1, dose 0.0195312 µM
  prolyl-isomerase activity (raw dose-response value): 0.07052 and 0.06933 and 0.06942
[1]; PPWD1, dose 0.0390625 µM
  prolyl-isomerase activity (raw dose-response value): 0.07199 and 0.07365 and 0.06621
[1]; PPWD1, dose 0.078125 µM
  prolyl-isomerase activity (raw dose-response value): 0.0685 and 0.06494 and 0.06712
[1]; PPWD1, dose 0.15625 µM
  prolyl-isomerase activity (raw dose-response value): 0.06342 and 0.0629 and 0.06451
[1]; PPWD1, dose 0.3125 µM
  prolyl-isomerase activity (raw dose-response value): 0.06089 and 0.06073 and 0.06267
[1]; PPWD1, dose 0.625 µM
  prolyl-isomerase activity (raw dose-response value): 0.0549 and 0.05757 and 0.05993
[1]; PPWD1, dose 1.25 µM
  prolyl-isomerase activity (raw dose-response value): 0.05311 and 0.05273 and 0.05312
[1]; PPWD1, dose 2.5 µM
  prolyl-isomerase activity (raw dose-response value): 0.04134 and 0.04153 and 0.04427
[1]; PPWD1, dose 5 µM
  prolyl-isomerase activity (raw dose-response value): 0.03369 and 0.0291 and 0.03053
[1]; PPWD1, dose 10 µM
  prolyl-isomerase activity (raw dose-response value): 0.0224 and 0.02303 and 0.02481
[1]
  pIC50: 5.49
[2]; dose 0.00457247 µM
  prolyl-isomerase activity (raw dose-response value): 0.09192 and 0.1036 and 0.1252
[2]; dose 0.0137174 µM
  prolyl-isomerase activity (raw dose-response value): 0.09377 and 0.09227 and 0.1138
[2]; dose 0.0411523 µM
  prolyl-isomerase activity (raw dose-response value): 0.08535 and 0.07571 and 0.07363
[2]; dose 0.123457 µM
  prolyl-isomerase activity (raw dose-response value): 0.076 and 0.06873 and 0.07349
[2]; dose 0.37037 µM
  prolyl-isomerase activity (raw dose-response value): 0.05318 and 0.03953 and 0.04525
[2]; dose 1.11111 µM
  prolyl-isomerase activity (raw dose-response value): 0.03174 and 0.02714 and 0.02735
[2]; dose 3.33333 µM
  prolyl-isomerase activity (raw dose-response value): 0.02002 and 0.01837 and 0.01843
[2]; dose 10 µM
  prolyl-isomerase activity (raw dose-response value): 0.01579 and 0.01529 and 0.01363
[2]
  pIC50: 6.80
[3]
  pIC50: 6.74
[3]; dose 0.0195312 µM
  prolyl-isomerase activity (raw dose-response value): 0.1243 and 0.1374 and 0.1472
[3]; dose 0.0390625 µM
  prolyl-isomerase activity (raw dose-response value): 0.1094 and 0.1294 and 0.1367
[3]; dose 0.078125 µM
  prolyl-isomerase activity (raw dose-response value): 0.0906 and 0.1127 and 0.1064
[3]; dose 0.15625 µM
  prolyl-isomerase activity (raw dose-response value): 0.06823 and 0.08697 and 0.08033
[3]; dose 0.3125 µM
  prolyl-isomerase activity (raw dose-response value): 0.0483 and 0.05915 and 0.05559
[3]; dose 0.625 µM
  prolyl-isomerase activity (raw dose-response value): 0.03197 and 0.04004 and 0.03906
[3]; dose 1.25 µM
  prolyl-isomerase activity (raw dose-response value): 0.02117 and 0.02794 and 0.0263
[3]; dose 2.5 µM
  prolyl-isomerase activity (raw dose-response value): 0.0143 and 0.01947 and 0.02017
[3]; dose 5 µM
  prolyl-isomerase activity (raw dose-response value): 0.01132 and 0.01248 and 0.01357
